Experimental findings from article PMC11701132, “Tau is a receptor with low affinity for glucocorticoids and is required for glucocorticoid-induced bone loss” (Cell Research, 2025) are described below.

One experiment addresses T1, GPR97 (Homo sapiens, UniProt Q86Y34).
T1 construct: gene ADGRG3; full-length human protein with N-terminal glutathione S-transferase tag on microarray
The experiment in a line: HuProt human proteome microarray with biotin-labeled dexamethasone ([…]). Type of experiment: binding.

A further experiment has as its target T2, Tau (Homo sapiens, UniProt P10636).
T2 construct: gene MAPT; purified Tau protein
Briefly: one-step kinetic SPR (KD […]); solid phase binding with biotin-dexamethasone ([…]); DARTS in Raw264.[…] lysate ([…]).

T2 sequence (P10636 1-441 isoform P10636-8): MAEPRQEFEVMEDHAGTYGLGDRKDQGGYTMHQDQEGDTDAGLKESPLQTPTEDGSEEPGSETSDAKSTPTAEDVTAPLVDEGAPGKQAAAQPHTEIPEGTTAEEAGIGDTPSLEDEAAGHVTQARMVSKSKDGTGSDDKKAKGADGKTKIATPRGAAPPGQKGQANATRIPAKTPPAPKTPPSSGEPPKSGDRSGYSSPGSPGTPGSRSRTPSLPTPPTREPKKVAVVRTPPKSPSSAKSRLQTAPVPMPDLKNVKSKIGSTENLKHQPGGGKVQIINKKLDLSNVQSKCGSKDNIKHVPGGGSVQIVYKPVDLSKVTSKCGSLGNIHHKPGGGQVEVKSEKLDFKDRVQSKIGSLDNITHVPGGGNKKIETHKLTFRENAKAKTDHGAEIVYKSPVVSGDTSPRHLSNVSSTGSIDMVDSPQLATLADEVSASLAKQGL
T1 sequence (Q86Y34 21-549): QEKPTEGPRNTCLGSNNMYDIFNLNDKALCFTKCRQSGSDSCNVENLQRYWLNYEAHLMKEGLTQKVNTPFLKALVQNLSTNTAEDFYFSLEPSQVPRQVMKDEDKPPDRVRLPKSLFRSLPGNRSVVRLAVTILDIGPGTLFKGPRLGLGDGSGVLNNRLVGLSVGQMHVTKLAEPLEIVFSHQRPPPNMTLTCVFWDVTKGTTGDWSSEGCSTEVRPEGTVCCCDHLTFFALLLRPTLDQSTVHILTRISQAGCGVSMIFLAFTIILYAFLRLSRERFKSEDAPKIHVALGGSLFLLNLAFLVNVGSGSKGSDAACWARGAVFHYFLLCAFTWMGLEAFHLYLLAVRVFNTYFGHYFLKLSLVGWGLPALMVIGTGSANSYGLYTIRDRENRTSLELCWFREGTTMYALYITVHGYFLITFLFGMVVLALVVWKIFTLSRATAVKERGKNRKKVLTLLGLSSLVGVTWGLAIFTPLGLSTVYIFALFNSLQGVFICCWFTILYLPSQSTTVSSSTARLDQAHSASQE

For the compound `C[C@@H]1C[C@H]2[C@@H]3CCC4=CC(=O)C=C[C@]4(C)[C@@]3(F)[C@@H](O)C[C@]2(C)[C@@]1(O)C(=O)CO` [dexamethasone], on GPR97, the “HuProt human proteome microarray with biotin-labeled dexamethasone (0.2 and 400)” value was “dexamethasone bound to GR and GPR97, two known receptors of dexamethasone”. The compound further came in with a Kd on Tau of about 380 µM.

By Kd is commonly meant the constant that tells how readily two partners part at equilibrium. The low end stands for a tighter complex, the high end for a looser complex.
